Format in all cases: in vivo, mouse
For one data set, the system named is murine Factor 7 mRNA. Put plainly: Liver Factor 7 mRNA in the FeCl3 induced venous thrombosis model. The settings on record: Example 15. The procedure: (§1) Three groups of BALB/c mice were injected with 25 mg/kg, 37.5 mg/kg, or 50 mg/kg of ISIS 403102, administered subcutaneously twice a week for 3 weeks. Two control groups of BALB/c mice were treated with PBS, administered subcutaneously twice a week for 3 weeks. Thrombus formation was induced with FeCl3 in half of the mice while the rest of the mice were assayed for tail bleeding. Two days after receiving the last dose of ISIS 403102 or PBS, mice were anesthetized with 150 mg/kg ketamine mixed with 10 mg/kg xylazine administered by intraperitoneal injection. Thrombus formation was induced with FeCl3 in all groups of the VT mice except the first control group.
(§2) In mice undergoing FeCl3 treatment, thrombus formation was induced by applying a piece of filter paper (2×4 mm) pre-saturated with 10% FeCl3 solution directly on the vena cava. After 3 minutes of exposure, the filter paper was removed. Thirty minutes after the filter paper application, a fixed length of the vein containing the thrombus was dissected out for platelet analysis. Liver was collected for RNA analysis.
RNA was extracted from liver tissue for real-time RT-PCR analysis of Factor 7. Results are presented as percent inhibition of Factor 7, relative to PBS control.
ISIS 403102 and warfarin (Coumadin®) were evaluated in BALB/c mice. Four groups of BALB/c mice were treated with 5 mg/kg, 10 mg/kg, 20 mg/kg, or 40 mg/kg of ISIS 403102, administered subcutaneously twice a week for 3 weeks. Two days after receiving the last dose of ISIS 403102, mice were anesthetized with 150 mg/kg ketamine mixed with 10 mg/kg xylazine administered by intraperitoneal injection. A fifth group of BALB/c mice was treated with 3 mg/kg of warfarin, administered intraperioneally daily for 6 days. Four hours after the last dose of warfarin, mice were sacrificed. A control group of BALB/c mice were treated with PBS, administered subcutaneously twice a week for 3 weeks. Two days after the last dose of PBS, mice were anesthetized with 150 mg/kg ketamine mixed with 10 mg/kg xylazine administered by intraperitoneal injection. Thrombus formation was induced with FeCl3 in groups of mice except the first control group.

For a further data set, the system named is BALB/c mice. Put plainly: Tail bleeding assay. The protocol: Mice not receiving treatment with FeCl3 solution were evaluated in a tail bleeding chamber. Mice were placed into the bleeding chamber two days after the final treatment of ISIS 403102 or PBS. Mice were anesthetized in the chamber with isofluorane and a small piece of tail (approximately 4 mm from the tip) was cut with sterile scissors. The cut tail was immediately placed in a 15 mL Falcon tube filled with approximately 10 mL of 0.9% NaCl buffer solution warmed to 37° C. The blood was collected over the course of 40 minutes. The saline filled tubes were weighed both before and after bleeding.
Tail-bleeding was measured to observe whether treatment with ISIS 403102 or warfarin causes internal hemorrhage in mice. ISIS 403102 and warfarin (Coumadin®) were evaluated in the tail bleeding assay. Six groups of BALB/c mice were treated with 1.25 mg/kg, 2.5 mg/kg, 5 mg/kg, 10 mg/kg, 20 mg/kg, or 40 mg/kg of ISIS 403102, administered subcutaneously twice a week for 3 weeks. An additional 6 groups of BALB/c mice were treated with 0.5 mg/kg, 1 mg/kg, 2 mg/kg, 3 mg/kg, 4 mg/kg, and 5 mg/kg of warfarin, administered intraperioneally daily for 6 days. A separate control group of BALB/c mice was treated with PBS, administered subcutaneously twice a week for 3 weeks.
Two days after the final treatment of ISIS 403102, warfarin, or PBS, mice were placed in a tail bleeding chamber. Mice were anesthetized in the chamber with isofluorane and a small piece of tail (approximately 4 mm from the tip) was cut with sterile scissors. The cut tail was immediately placed in a 15 mL Falcon tube filled with approximately 10 mL of 0.9% NaCl buffer solution warmed to 37° C. The blood was collected over the course of 40 minutes. The saline filled tubes were weighed both before and after bleeding.
ISIS 403102 and Apixaban were evaluated in BALB/c mice. In a first group of BALB/c mice, 40 mg/kg of ISIS 403102 was administered subcutaneously twice a week for 3 weeks. An additional 3 groups of BALB/c mice were treated with 5 mg/kg and 10 mg/kg of Apixaban, administered in a single intraperitoneal dose, and 10 mg/kg of Apixaban administered as a single subcutaneous dose. A control group of BALB/c mice was treated with PBS, administered subcutaneously twice a week for 3 weeks.
Two days after the final treatment of ISIS 403102 or PBS, mice were placed in a tail bleeding chamber. Mice from the groups treated with Apixaban were analyzed 30 minutes after the single dose. Mice were anesthetized in the chamber with isofluorane and a small piece of tail (approximately 4 mm from the tip) was cut with sterile scissors. The cut tail was immediately placed in a 15 mL Falcon tube filled with approximately 10 mL of 0.9% NaCl buffer solution warmed to 37° C. The blood was collected over the course of 40 minutes. The saline filled tubes were weighed before and after bleeding.

In the next data set the test system is platelet factor-4 (PF-4). Nature of the data set: Thrombus formation by real-time RT-PCR quantification of PF-4 in the FeCl3 induced venous thrombosis model. The settings on record: Example 16; dose of 1 mg/kg and higher, intraperitoneally daily for 6 days. The procedure:
as §1, §2
Real-time RT-PCR quantification of platelet factor-4 (PF-4) was used to quantify platelets in the vena cava as a measure of thrombus formation. Results are presented as a percentage of PF-4 in ISIS 403102, as compared to the two PBS-treated control groups. […] Therefore, antisense oligonucleotides are useful for inhibiting thrombus and clot formation.
ISIS 403102 and warfarin (Coumadin®) were evaluated in BALB/c mice. Four groups of BALB/c mice were treated with 5 mg/kg, 10 mg/kg, 20 mg/kg, or 40 mg/kg of ISIS 403102, administered subcutaneously twice a week for 3 weeks. Two days after receiving the last dose of ISIS 403102, mice were anesthetized with 150 mg/kg ketamine mixed with 10 mg/kg xylazine administered by intraperitoneal injection. Six additional groups of BALB/c mice was treated with 0.5 mg/kg, 1 mg/kg, 2 mg·kg, 3 mg/kg, 4 mg/kg, or 5 mg/kg of warfarin, administered intraperioneally daily for 6 days. Four hours after the last dose of warfarin, mice were sacrificed. A control group of BALB/c mice were treated with PBS, administered subcutaneously twice a week for 3 weeks. Two days after the last dose of PBS, mice were anesthetized with 150 mg/kg ketamine mixed with 10 mg/kg xylazine administered by intraperitoneal injection. Thrombus formation was induced with FeCl3 in groups of mice except the first control group.
Real-time RT-PCR quantification of platelet factor-4 (PF-4) was used to quantify platelets in the vena cava as a measure of thrombus formation. Results are presented as a percentage of PF-4 in ISIS 403102 or warfarin treated mice, as compared to the two PBS-treated control groups. […] Therefore, ISIS antisense oligonucleotides are useful for inhibiting thrombus and clot formation.

On to `CC(=O)CC(c1ccccc1)c1c(O)c2ccccc2oc1=O` (stereo not shown) [warfarin], for which the “reduction of Factor 7 mRNA as compared to the PBS control” value with murine Factor 7 mRNA (3 mg/kg intraperitoneally daily for 6 days) is on record as “did not result in significant reduction of Factor 7”. Moreover, the “% inhibition of Factor 7 mRNA, relative to PBS control” value in the data set on murine Factor 7 mRNA (BALB/c mice liver, 3 mg/kg i.p. daily for 6 days, four hours after last dose) worked out at 10%. Also, in the data set with BALB/c mice (Example 17, 0.5-5 mg/kg intraperitoneally daily for 6 days), the “bleeding as compared to PBS control mice” value is “did increase bleeding”. Moreover, the “Blood (g), tail bleeding” value was 0.16 g in the data set on BALB/c mice (Example 17, BALB/c mice, 0.5 mg/kg i.p. daily for 6 days, blood collected over 40 minutes); 0.28 g in the data set with BALB/c mice (Example 17, BALB/c mice, 1 mg/kg i.p. daily for 6 days, blood collected over 40 minutes); 0.58 g in the data set with BALB/c mice (Example 17, BALB/c mice, 2 mg/kg i.p. daily for 6 days, blood collected over 40 minutes); 0.78 g in the data set on BALB/c mice (Example 17, BALB/c mice, 3 mg/kg i.p. daily for 6 days, blood collected over 40 minutes); 0.66 g in the data set with BALB/c mice (Example 17, BALB/c mice, 4 mg/kg i.p. daily for 6 days, blood collected over 40 minutes); 0.93 g with BALB/c mice (Example 17, BALB/c mice, 5 mg/kg i.p. daily for 6 days, blood collected over 40 minutes). The “PF-4 in comparison to the PBS control” value in the data set on platelet factor-4 (PF-4) is on record as “reduction of PF-4”.

`COc1ccc(-n2nc(C(N)=O)c3c2C(=O)N(c2ccc(N4CCCCC4=O)cc2)CC3)cc1` [apixaban, Apixaban]: the “Blood (g), tail bleeding” value in the data set on BALB/c mice (BALB/c, mouse, in vivo, ip, 5 mg/kg, 30 min) amounted to 0.22 g; in the data set with BALB/c mice (BALB/c, mouse, in vivo, ip, 10 mg/kg, 30 min), 0.58 g; in the data set on BALB/c mice (BALB/c, mouse, in vivo, sc, 10 mg/kg, 30 min) it was 0.04 g. Besides, the “bleeding compared to PBS treated mice” value is “same amount of bleeding as PBS treated mice” in the data set with BALB/c mice (mouse, in vivo, ip, 5 mg/kg); “increased bleeding” in the data set on BALB/c mice (mouse, in vivo, ip, 10 mg/kg); “less bleeding than PBS mice” with BALB/c mice (mouse, in vivo, sc, 10 mg/kg).

The values are drawn from patent US9029337B2, “Modulation of factor 7 expression” (Isis Pharmaceuticals, Inc., priority 2007, dated 2015).
